According to ChEMBL document CHEMBL5214886, “An appraisal of anti-mycobacterial activity with structure-activity relationship of piperazine and its analogues: A review” (Eur J Med Chem, 2021):
In brackets after ≈: the same amount, converted by molar mass.

What was measured:
Assay type in all cases: functional
[1] = system: Mycobacterium tuberculosis; assay: Antimycobacterial activity against multi drug resistant Mycobacterium tuberculosis assessed as reduction in bacterial growth by two-fold agar dilution method
[2] = system: Mycobacterium tuberculosis; assay: Antimycobacterial activity against multi drug resistant Mycobacterium tuberculosis 16833 assessed as reduction in bacterial growth by MABA analysis
[3] = system: Mycobacterium tuberculosis; assay: Antimycobacterial activity against multi drug resistant Mycobacterium tuberculosis 16995 assessed as reduction in bacterial growth by MABA analysis

| Compound | MIC [1] | MIC [2] | MIC [3] |
| --- | --- | --- | --- |
| O=C(/C=C(\O)c1cc(Cc2c(F)cc(F)cc2F)cn(Cc2ccccc2F)c1=O)C(=O)N1CCN(c2cccc3ccccc23)CC1 | ≤ 1.5 µM | – | – |
| NNC(=O)c1ccncc1 [ISONIAZID] | – | 0.06 µM (≈ 0.00823 µg/mL) | 0.06 µM (≈ 0.00823 µg/mL) |
| O=C(NCc1ccc(N2CCN(c3ccc(F)cc3F)CC2)cc1)c1ccc([N+](=O)[O-])o1 | – | 4.16 µM (≈ 1.84 µg/mL) | 3.19 µM (≈ 1.41 µg/mL) |
| CO[C@H]1/C=C/O[C@@]2(C)Oc3c(C)c(O)c4c(O)c(c(/C=N/N5CCN(C)CC5)c(O)c4c3C2=O)NC(=O)/C(C)=C\C=C\[C@H](C)[C@H](O)[C@@H](C)[C@@H](O)[C@@H](C)[C@H](OC(C)=O)[C@@H]1C [RIFAMPIN] | – | > 48.6 µM | > 48.6 µM |
| COc1ccc(N2CCN(c3ccc(CNC(=O)c4ccc([N+](=O)[O-])o4)cc3)CC2)cc1 | – | 9.16 µM (≈ 4 µg/mL) | 9.16 µM (≈ 4 µg/mL) |
| O=C(NCc1ccc(N2CCN(c3ccc(F)cc3)CC2)cc1)c1ccc([N+](=O)[O-])o1 | – | 7.61 µM (≈ 3.23 µg/mL) | 4.22 µM (≈ 1.79 µg/mL) |
